The nature of series [1]: Antibacterial activity against Enterobacter cloacae 1321E. Format: functional.
For series [2], the system named is Pseudomonas aeruginosa. Nature of the series: microbe, parasite or virus in culture. Format: functional.
Description: Antibacterial activity against Pseudomonas aeruginosa 1771M
Series [3] concerns Staphylococcus aureus. Kind of series: Antibacterial activity against Staphylococcus aureus SG 511. In kind it is functional.
Series [4] has as its system Streptococcus pyogenes. Kind of series: Antibacterial activity against Streptococcus pyogenes 77A. In kind it is functional.
The subject of series [5] is Klebsiella aerogenes. Kind of series: Antibacterial activity against Klebsiella aerogenes 1522E. Format: functional.
In series [6] the test system is Enterococcus faecium. Kind of series: Antibacterial activity against Streptococcus faecium MD 8b. In kind it is functional.
The test system of series [7] is Salmonella typhimurium. Kind of series: Antibacterial activity against Salmonella Typhimurium. In kind it is functional, Salmonella enterica subsp. enterica serovar Typhimurium. The settings on record: Salmonella enterica.
The test system of series [8] is Pseudomonas aeruginosa. Kind of series: microbe, parasite or virus in culture. In kind it is functional. This is another data set of the same source.
Description: Compound was evaluated for antibacterial activity against Pseudomonas aeruginosa 1592E
For series [9], the system named is Escherichia coli. Nature of the series: microbe, parasite or virus in culture. In kind it is functional.
Description: Antibacterial activity against Escherichia coli 1507E
The target in series [10] is T1, Dipeptidase 1 (Sus scrofa) (UniProt P22412).
T1 sequence (whole entry): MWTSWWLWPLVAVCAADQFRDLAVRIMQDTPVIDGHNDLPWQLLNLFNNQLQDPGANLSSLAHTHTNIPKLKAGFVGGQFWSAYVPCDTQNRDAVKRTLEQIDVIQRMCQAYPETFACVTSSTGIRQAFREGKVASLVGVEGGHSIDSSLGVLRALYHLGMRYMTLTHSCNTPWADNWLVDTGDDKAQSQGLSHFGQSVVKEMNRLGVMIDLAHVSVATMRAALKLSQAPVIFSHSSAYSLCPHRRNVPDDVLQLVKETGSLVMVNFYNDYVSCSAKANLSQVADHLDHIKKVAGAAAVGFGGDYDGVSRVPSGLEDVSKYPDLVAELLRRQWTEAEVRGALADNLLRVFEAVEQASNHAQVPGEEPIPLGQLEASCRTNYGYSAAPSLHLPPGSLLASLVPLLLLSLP
Nature of the series: Compound was evaluated for relative rate of hydrolysis to imipenem by partially purified porcine renal Dehydropeptidase-1. Also noted: scale not given: the % may be the effect or the level left.

Series [11] has as its system Streptococcus pyogenes. Nature of the series: Compound was tested for in vivo protective activity against Streptococcus pyogenes 77A at a single subcutaneous administration in mice. Format: functional. Particulars: sc, read-out: PD50.
A short description of series [12]: Time taken by the compound to reach maximum concentration. Format: ADME.
For series [13], the system named is Escherichia coli. Kind of series: Compound was tested for in vivo protective activity against Escherichia coli 078 at a single subcutaneous administration in mice. Format: functional. The settings on record: sc, read-out: PD50.
The test system of series [14] is Pseudomonas aeruginosa. Nature of the series: Compound was tested for in vivo protective activity against Pseudomonas aeruginosa 1771M at a single subcutaneous administration in mice. In kind it is functional. Particulars: sc, read-out: PD50.

By Tmax is commonly meant the time from dosing to the highest level.

Values after ≈ are worked out from the molar mass of the structure shown.

With `C[C@@H](O)[C@H]1C(=O)N2C(C(=O)O)=C(S[C@@H]3CN[C@H](C(=O)NCCS(=O)(=O)N4CCOCC4)C3)[C@H](C)[C@H]12`, the MIC was found to be 0.049 µg/mL (≈ 0.092 µM) in series [1]; 1.56 µg/mL (≈ 2.93 µM) in series [2]; 0.391 µg/mL (≈ 0.734 µM) in series [3]; 0.013 µg/mL (≈ 0.0244 µM) in series [4]; 0.098 µg/mL (≈ 0.184 µM) in series [5]; 12.5 µg/mL (≈ 23.5 µM) in series [6]. Moreover, the MIC in series [7] amounted to 0.098 µg/mL (≈ 0.184 µM); in series [8], 50 µg/mL (≈ 93.9 µM); in [9], 0.049 µg/mL (≈ 0.092 µM).
Take `C[C@@H](O)[C@H]1C(=O)N2C(C(=O)O)=C(S[C@@H]3CN[C@H](C(=O)NCCC(=O)O)C3)[C@H](C)[C@H]12`: the MIC in [1] was determined as 0.049 µg/mL (≈ 0.115 µM); in [2], 3.12 µg/mL (≈ 7.31 µM); in series [3] it was 1.56 µg/mL (≈ 3.66 µM); in series [4], 0.049 µg/mL (≈ 0.115 µM); in series [5], 0.098 µg/mL (≈ 0.229 µM); in series [6], 50 µg/mL (≈ 117 µM). Also, the MIC was 0.098 µg/mL (≈ 0.229 µM) in series [7], 6.25 µg/mL (≈ 14.6 µM) in series [8] and 0.049 µg/mL (≈ 0.115 µM) in series [9].
For the compound `C[C@@H](O)[C@H]1C(=O)N2C(C(=O)O)=C(S[C@@H]3CN[C@H](C(=O)NCCS(=O)(=O)N4CCCC4)C3)[C@H](C)[C@H]12`, the MIC in series [1] was determined as 0.013 µg/mL (≈ 0.0252 µM); in [2] it was 0.391 µg/mL (≈ 0.757 µM); in series [3], 0.098 µg/mL (≈ 0.19 µM); in [4], 0.004 µg/mL (≈ 0.00774 µM); in [5], 0.025 µg/mL (≈ 0.0484 µM); in [6] it was 6.25 µg/mL (≈ 12.1 µM). For the same compound, the MIC was 0.025 µg/mL (≈ 0.0484 µM) in series [7], 6.25 µg/mL (≈ 12.1 µM) in series [8] and 0.013 µg/mL (≈ 0.0252 µM) in [9].
In the case of `C[C@@H](O)[C@H]1C(=O)N2C(C(=O)O)=C(S[C@@H]3CN[C@H](C(=O)NCCS(=O)(=O)N(C)C)C3)[C@H](C)[C@H]12`, the MIC in series [1] was 0.025 µg/mL (≈ 0.051 µM); in series [2], 0.195 µg/mL (≈ 0.397 µM); in series [3], 0.195 µg/mL (≈ 0.397 µM); in [4] it was 0.007 µg/mL (≈ 0.0143 µM); in series [5], 0.049 µg/mL (≈ 0.0999 µM); in [6], 12.5 µg/mL (≈ 25.5 µM). In addition, the results for the MIC in series [7], in series [8] and in series [9] were 0.049 µg/mL (≈ 0.0999 µM), 1.56 µg/mL (≈ 3.19 µM) and 0.025 µg/mL (≈ 0.051 µM), respectively.
In the case of `C[C@@H](O)[C@H]1C(=O)N2C(C(=O)O)=C(S[C@@H]3CN[C@H](C(=O)NCCC(=O)N4CCCC4)C3)[C@H](C)[C@H]12`, the MIC is 0.025 µg/mL (≈ 0.052 µM) in series [1]; 0.781 µg/mL (≈ 1.63 µM) in series [2]; 0.195 µg/mL (≈ 0.406 µM) in series [3]; 0.007 µg/mL (≈ 0.0146 µM) in series [4]; 0.049 µg/mL (≈ 0.102 µM) in series [5]; 12.5 µg/mL (≈ 26 µM) in series [6]. Moreover, the MIC in [7] came out at 0.049 µg/mL (≈ 0.102 µM); in [8], 6.25 µg/mL (≈ 13 µM); in series [9], 0.025 µg/mL (≈ 0.052 µM).
As to `C[C@@H](O)[C@H]1C(=O)N2C(C(=O)O)=C(SCCNC=N)C[C@H]12` [IMIPENEM ANHYDROUS], the MIC is 0.195 µg/mL (≈ 0.651 µM) in series [1]; 0.195 µg/mL (≈ 0.651 µM) in series [2]; 0.013 µg/mL (≈ 0.0434 µM) in series [3]; 0.004 µg/mL (≈ 0.0134 µM) in [4]; 0.391 µg/mL (≈ 1.31 µM) in [5]; 1.56 µg/mL (≈ 5.22 µM) in series [6]. The MIC in [7] was 0.781 µg/mL (≈ 2.61 µM); in [8] it was 0.781 µg/mL (≈ 2.61 µM); in [9], 0.195 µg/mL (≈ 0.651 µM). The compound also returned a Stability in series [10] of 10000%.
Regarding `C[C@@H](O)[C@H]1C(=O)N2C(C(=O)O)=C(S[C@@H]3CN[C@H](C(=O)NCCC(=O)NCCO)C3)[C@H](C)[C@H]12`, the MIC in series [1] is 0.025 µg/mL (≈ 0.0531 µM); in series [2] it was 0.391 µg/mL (≈ 0.831 µM); in [3], 0.391 µg/mL (≈ 0.831 µM); in series [4], 0.007 µg/mL (≈ 0.0149 µM); in series [5], 0.098 µg/mL (≈ 0.208 µM); in [6], 12.5 µg/mL (≈ 26.6 µM). In addition, the MIC came to 0.098 µg/mL (≈ 0.208 µM) in [7], 0.391 µg/mL (≈ 0.831 µM) in series [8] and 0.049 µg/mL (≈ 0.104 µM) in [9].
Regarding `C[C@@H](O)[C@H]1C(=O)N2C(C(=O)O)=C(S[C@@H]3CN[C@H](C(=O)N(C)C)C3)[C@H](C)[C@H]12` [MEROPENEM], the ED50 is 7.16 mg/kg in [11], 1.24 mg/kg in series [13] and 1.76 mg/kg in series [14]. The MIC in series [1] stood at 0.025 µg/mL (≈ 0.0652 µM); in series [2] it was 0.049 µg/mL (≈ 0.128 µM); in series [3], 0.098 µg/mL (≈ 0.256 µM); in [4], 0.002 µg/mL (≈ 0.00522 µM); in series [5], 0.049 µg/mL (≈ 0.128 µM); in series [6], 12.5 µg/mL (≈ 32.6 µM). The MIC in [7] is 0.025 µg/mL (≈ 0.0652 µM); in series [8], 0.195 µg/mL (≈ 0.509 µM); in series [9], 0.025 µg/mL (≈ 0.0652 µM). Moreover, the Stability in series [10] was determined as 3200%. For the same compound, the Tmax in [12] was determined as 12.6 min.

Values taken from ChEMBL document CHEMBL1130853, “Synthesis and biological properties of new 1 beta-methylcarbapenems” (Bioorg Med Chem Lett, 1998).
